Common to all, as to test: Yeast 6x EcRE-lacZ β-galactosidase transactivation assay
The target of experiment [1] is T1, Dm EcR + DmUSP (Drosophila melanogaster, UniProt P34021).
T1 construct: ubiquitin (human, 76 aa) (N, cleaved yes); expressed in transfected cells
In kind it is cell-based. As to conditions: RH 5992 10 μM, 4 hours, DMSO control 2.091. On the procedure:
(§1) Briefly, yeast cells are cultured in 5 mL of YPD liquid medium overnight at 30° C. The cell culture was diluted 1:20 in YPD media and further grown until cell density reached an O.D of 0.6. at OD600. The cells were pelleted by centrifugation and washed with 10 mL of TE+0.1M lithium acetate. Cells are then resuspended in 10 mL TE+0.1M lithium acetate and incubated at 30° C. for 1 hour. Cells are collected and resuspended in 0.5 mL of TE+ 0.1M lithium acetate. Aliquots of cells (50 μL), were incubated for 15 minutes at 30° C. with 1–2 μg plasmid DNA in the presence of 5 μg of denatured salmon sperm DNA as DNA carrier. In the case of co-transformation, the indicated plasmids were added simultaneously. 50% polyethyleneglycol of molecular weight 4000, diluted in TE, was added to a final concentration of 35%. DMSO was added to the transformation solution simultaneously to a final concentration 3%. The samples were mixed well by vortexing and incubated for an additional 30 minutes at 30° C. The cell mixture is then heated for 15 minutes at 42° C. Cells were then collected and plated onto appropriate yeast selective media. Transformants of 4 plasmids are selected on the complete media without tryptophan, uracil, leucine and histidine.
(§2) The yeast cells grown overnight in selective liquid media at 30° C. were diluted in prewarmed liquid selective media to 0.1 at OD600 (ODculture). 100 μl of the cell culture was spiked to each well of a.96-well microtiter plate. Ligand (2 μl diluted in DMSO) was added to each well giving a final concentration of DMSO of 2%. As a control, 2 μl of DMSO were also added to additional test wells. The final concentration of the tested compounds in the media is 10 μM. The cells were incubated in the presence of ligand in a shaker at 30° C. After 4 hours of incubation, 100 μl of 2× “Z” Sarcosine-ONPG buffer (120 mM Na2HPO4, 80 mM NaH2PO4, 20 mM KCl, 2 mM MgSO4, 100 mM beta-mercaptoethanol (Sigma), pH 7.0, 0.4% lauroyl sarcosine (Sigma), 4 mg/mL ONPG (Diagnostic Chemicals limited) was added to each well and the plate was further incubated at 37° C. The 2× “Z” Sarcosine-ONPG buffer is freshly prepared or stored at −20° C. prior to use. After incubation at 37° C. for 1 hour. The reaction was stopped by adding 100 μL of quenching solution 0.5 M Na2CO3 and OD405 (ODreaction) and beta-galactosidase activity was measured in a micro plate reader (Biotek) at a wave length of 405–450 nanometers. The effect of copper on enhancement of the transactivation response mediated by the ligands tested was studied by adding CuSO4 to the media to a final concentration of 10 μM.
(§3) Using the transformation method set forth above, yeast were co-transformed with a reporter gene as shown in FIG. 2 and the expression vector encoding the full-length D. melanogaster ecdysone receptor, DmEcR (FIG. 3A) in the presence or absence of the Dm EcR heterodimer partner, DmUSP (FIG. 4A). Transformed cells were incubated with DMSO alone as a control or with a proprietary ecdysone receptor ligand (Rohm & Haas compound RH5992—tebufenozide) at final concentration 10 μM for 4 hours. The samples were then assayed for β-galactosidase activity as described above. […] As the N-terminal portion of the Dm EcR receptor is reported to play a role in ligand independent transactivation, an expression vector containing an N-terminal deletion in the EcR was constructed (see FIG. 3B) and assessed in the β-galactosidase assays described above. […] Restoration of ligand dependent transactivation was observed only when the DmΔN EcR, DmUSP and co-activator GRIP1 were coexpressed. See Table I. The data obtained indicate that the efficiency of ligand-dependent transactivation of the ecdysone receptor requires both heterodimer formation between EcR and USP, and proper interaction with co-activator GRIP1. […]

The target of experiment [2] is T2, Dm EcR-B1 (Drosophila melanogaster, UniProt P34021).
T2 construct: ubiquitin (human, 76 aa) (N, cleaved yes); expressed in transfected cells
In kind it is cell-based. Conditions: RH 5992 10 μM, 4 hours, DMSO control 1.090. On the procedure: as §1, §2, §3

The target in experiment [3] is T3, Dm ΔN EcR + DmUSP (Drosophila melanogaster, UniProt P34021).
T3 construct: ubiquitin (human, 76 aa) (N, cleaved yes); expressed in transfected cells
In kind it is cell-based. Conditions: 4 hours. On the procedure: as §1, §2, §3

The target in experiment [4] is T4, Dm ΔN EcR + DmUSP + GRIP1 (Drosophila melanogaster, UniProt P34021).
T4 construct: ubiquitin (human, 76 aa) (N, cleaved yes); expressed in transfected cells
In kind it is cell-based. As to conditions: RH 5992 10 μM, 4 hours, DMSO control 0.424. On the procedure:
as §1, §2, §3

Experiment [5] deals with T5, Dm ΔN EcR + Cf USP + GRIP1 (Drosophila melanogaster, UniProt P34021).
T5 construct: ubiquitin (human, 76 aa) (N, cleaved yes); expressed in transfected cells
In kind it is cell-based, Drosophila melanogaster; Choristoneura fumiferana. Conditions: RH 5992 10 μM, 4 hours, DMSO control 1.149. As to the method:
as §1, with “DMSO was added to the transformation solution simultaneously to a final concentration 3%. The samples were mixed well by vortexing and incubated for an additional 30 minutes at 30° C. The cell mixture is then heated for 15 minutes at 42° C. Cells were then collected and plated onto appropriate yeast selective media. Transformants of 4 plasmids are selected on the complete media without tryptophan, uracil, leucine and histidine.” left out
(§4) Using the transformation method set forth above, yeast were co-transformed with a reporter gene as shown in FIG. 2 and the expression vector encoding the full-length D. melanogaster ecdysone receptor, DmEcR (FIG. 3A) in the presence or absence of the Dm EcR heterodimer partner, DmUSP (FIG. 4A). […] As the N-terminal portion of the Dm EcR receptor is reported to play a role in ligand independent transactivation, an expression vector containing an N-terminal deletion in the EcR was constructed (see FIG. 3B) and assessed in the β-galactosidase assays described above. […]

The target in experiment [6] is T6, Dm ΔN EcR +Cf ΔA/B USP + GRIP1 (Drosophila melanogaster, UniProt P34021).
T6 construct: ubiquitin (human, 76 aa) (N, cleaved yes); expressed in transfected cells
In kind it is cell-based, Drosophila melanogaster; Choristoneura fumiferana. As to conditions: RH 5992 10 μM, 4 hours, DMSO control 0.235. On the procedure:
as §1, with “DMSO was added to the transformation solution simultaneously to a final concentration 3%. The samples were mixed well by vortexing and incubated for an additional 30 minutes at 30° C. The cell mixture is then heated for 15 minutes at 42° C. Cells were then collected and plated onto appropriate yeast selective media. Transformants of 4 plasmids are selected on the complete media without tryptophan, uracil, leucine and histidine.” left out
as §4

Experiment [7] deals with T7, Aa ΔA/B EcR + RXRα + GRIP1 (Aedes aegypti, UniProt P49880).
T7 construct: ubiquitin (human, 76 aa) (N, cleaved yes); expressed in transfected cells
In kind it is cell-based, Aedes aegypti; human. Conditions: RH 5992 10 μM, 4 hours, DMSO control 0.544. On the procedure: The human RXR α (Genbank accession number X52773), mouse RXR β (Genbank accession number X66224) or mouse RXR γ (Genebank accession number X66225) subtypes were expressed in yeast-E. coli multicopy 2μ expression plasmids under regulation of CUP1 promoter with the LEU2 selective marker (1).
Briefly, yeast cells are cultured in 5 mL of YPD liquid medium overnight at 30° C. The cell culture was diluted 1:20 in YPD media and further grown until cell density reached an O.D of 0.6. at OD600. The cells were pelleted by centrifugation and washed with 10 mL of TE+0.1M lithium acetate. Cells are then resuspended in 10 mL TE+0.1M lithium acetate and incubated at 30° C. for 1 hour. Cells are collected and resuspended in 0.5 mL of TE+ 0.1M lithium acetate. […]
Using the transformation method described above, yeast were co-transformed with a reporter gene as shown in FIG. 2 and the expression vector encoding the full-length Aedes aegypti ecdysone receptor, Aa EcR (FIG. 7A) in the presence or absence of the Aa EcR heterodimer partner, Aa USP (a or b form, FIGS. 8A and 8B respectively). […] As the N-terminal portion of the AaEcR receptor is reported to play a role in ligand independent transactivation, an expression vector containing an N-terminal deletion in the Aa EcR was constructed (see FIG. 7B) and assessed in the β-galactosidase assays described above. […]

From US7037656B2, “Methods and compositions for identifying ligands for nuclear receptors” (priority 2000, dated 2006) come the findings set out here.

T3 sequence (P34021 221-878 limits assumed, stated change not applied): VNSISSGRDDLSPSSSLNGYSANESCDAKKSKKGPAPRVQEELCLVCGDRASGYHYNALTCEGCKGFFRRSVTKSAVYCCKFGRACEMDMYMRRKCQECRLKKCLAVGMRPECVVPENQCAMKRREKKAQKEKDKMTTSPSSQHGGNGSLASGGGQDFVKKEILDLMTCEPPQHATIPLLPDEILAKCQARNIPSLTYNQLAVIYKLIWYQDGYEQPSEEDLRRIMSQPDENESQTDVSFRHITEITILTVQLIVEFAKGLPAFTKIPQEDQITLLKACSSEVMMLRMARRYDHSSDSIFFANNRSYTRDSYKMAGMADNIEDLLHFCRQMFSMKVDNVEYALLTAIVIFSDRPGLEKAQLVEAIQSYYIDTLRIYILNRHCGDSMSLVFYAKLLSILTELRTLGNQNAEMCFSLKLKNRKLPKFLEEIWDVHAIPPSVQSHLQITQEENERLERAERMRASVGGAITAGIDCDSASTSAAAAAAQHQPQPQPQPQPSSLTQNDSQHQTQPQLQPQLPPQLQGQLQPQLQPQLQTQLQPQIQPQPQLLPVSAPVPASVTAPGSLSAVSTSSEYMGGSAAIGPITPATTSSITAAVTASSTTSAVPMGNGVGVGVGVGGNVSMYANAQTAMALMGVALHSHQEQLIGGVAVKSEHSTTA
T3 sequence (P20153 whole entry partner): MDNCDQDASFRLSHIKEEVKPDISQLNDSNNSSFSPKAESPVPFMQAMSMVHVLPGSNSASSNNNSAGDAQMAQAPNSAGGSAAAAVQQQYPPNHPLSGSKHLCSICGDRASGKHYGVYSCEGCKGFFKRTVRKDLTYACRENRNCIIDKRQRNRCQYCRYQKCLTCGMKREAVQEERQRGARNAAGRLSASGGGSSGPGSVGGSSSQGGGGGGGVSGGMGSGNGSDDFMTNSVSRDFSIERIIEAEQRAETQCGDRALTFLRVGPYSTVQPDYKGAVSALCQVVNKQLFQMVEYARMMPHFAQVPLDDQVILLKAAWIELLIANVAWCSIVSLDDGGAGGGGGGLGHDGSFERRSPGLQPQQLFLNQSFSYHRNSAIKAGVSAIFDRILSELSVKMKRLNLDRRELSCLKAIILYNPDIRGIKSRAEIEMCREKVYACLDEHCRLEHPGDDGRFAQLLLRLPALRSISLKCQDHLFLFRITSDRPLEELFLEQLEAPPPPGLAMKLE
T7 sequence (P49880 with tags, fused parts or gaps): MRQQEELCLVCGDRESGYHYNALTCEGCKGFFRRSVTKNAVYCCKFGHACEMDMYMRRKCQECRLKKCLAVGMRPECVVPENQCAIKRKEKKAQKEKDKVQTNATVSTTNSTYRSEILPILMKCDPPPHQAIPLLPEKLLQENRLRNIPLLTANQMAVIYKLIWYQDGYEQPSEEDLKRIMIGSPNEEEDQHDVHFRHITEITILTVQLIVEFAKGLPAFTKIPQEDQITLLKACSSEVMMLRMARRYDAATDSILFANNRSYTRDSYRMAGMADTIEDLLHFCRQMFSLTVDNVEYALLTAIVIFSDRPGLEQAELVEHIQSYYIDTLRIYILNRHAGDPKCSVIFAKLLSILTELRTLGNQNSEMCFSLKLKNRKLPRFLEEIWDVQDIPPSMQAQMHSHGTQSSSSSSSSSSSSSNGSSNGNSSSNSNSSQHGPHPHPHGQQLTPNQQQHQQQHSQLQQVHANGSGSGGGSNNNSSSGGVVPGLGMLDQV
T7 sequence (P19793 whole entry partner): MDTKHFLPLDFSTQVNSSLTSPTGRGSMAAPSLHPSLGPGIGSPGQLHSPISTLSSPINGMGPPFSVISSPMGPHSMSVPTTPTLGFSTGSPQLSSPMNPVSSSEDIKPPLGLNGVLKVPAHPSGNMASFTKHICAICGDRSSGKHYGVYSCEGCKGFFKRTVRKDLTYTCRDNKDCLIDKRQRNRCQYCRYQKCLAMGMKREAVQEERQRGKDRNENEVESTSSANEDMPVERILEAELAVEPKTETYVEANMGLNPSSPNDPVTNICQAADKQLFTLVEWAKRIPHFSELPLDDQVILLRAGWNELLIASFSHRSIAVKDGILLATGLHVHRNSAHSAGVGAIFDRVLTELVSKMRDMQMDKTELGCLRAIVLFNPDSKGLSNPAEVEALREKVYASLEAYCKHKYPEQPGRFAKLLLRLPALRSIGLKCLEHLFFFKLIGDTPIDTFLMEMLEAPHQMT
T5 sequence (P34021 221-878 limits assumed, stated change not applied): as the sequence (P34021 221-878 limits assumed, stated change not applied) above
T5 sequence (O76202 whole entry partner): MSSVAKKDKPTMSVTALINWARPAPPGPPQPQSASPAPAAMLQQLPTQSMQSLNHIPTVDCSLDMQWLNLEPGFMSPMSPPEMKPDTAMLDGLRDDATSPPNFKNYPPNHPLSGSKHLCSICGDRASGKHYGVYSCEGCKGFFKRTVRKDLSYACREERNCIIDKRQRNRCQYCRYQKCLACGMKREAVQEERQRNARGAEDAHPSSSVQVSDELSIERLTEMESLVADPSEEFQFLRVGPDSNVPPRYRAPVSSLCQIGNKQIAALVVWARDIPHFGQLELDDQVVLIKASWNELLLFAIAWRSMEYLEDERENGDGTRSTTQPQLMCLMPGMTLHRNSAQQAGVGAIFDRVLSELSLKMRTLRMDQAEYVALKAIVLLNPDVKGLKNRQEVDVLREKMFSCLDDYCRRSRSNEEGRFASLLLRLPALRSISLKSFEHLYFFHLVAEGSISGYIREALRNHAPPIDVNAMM
T5 sequence (Q61026 322-1121 partner limits assumed): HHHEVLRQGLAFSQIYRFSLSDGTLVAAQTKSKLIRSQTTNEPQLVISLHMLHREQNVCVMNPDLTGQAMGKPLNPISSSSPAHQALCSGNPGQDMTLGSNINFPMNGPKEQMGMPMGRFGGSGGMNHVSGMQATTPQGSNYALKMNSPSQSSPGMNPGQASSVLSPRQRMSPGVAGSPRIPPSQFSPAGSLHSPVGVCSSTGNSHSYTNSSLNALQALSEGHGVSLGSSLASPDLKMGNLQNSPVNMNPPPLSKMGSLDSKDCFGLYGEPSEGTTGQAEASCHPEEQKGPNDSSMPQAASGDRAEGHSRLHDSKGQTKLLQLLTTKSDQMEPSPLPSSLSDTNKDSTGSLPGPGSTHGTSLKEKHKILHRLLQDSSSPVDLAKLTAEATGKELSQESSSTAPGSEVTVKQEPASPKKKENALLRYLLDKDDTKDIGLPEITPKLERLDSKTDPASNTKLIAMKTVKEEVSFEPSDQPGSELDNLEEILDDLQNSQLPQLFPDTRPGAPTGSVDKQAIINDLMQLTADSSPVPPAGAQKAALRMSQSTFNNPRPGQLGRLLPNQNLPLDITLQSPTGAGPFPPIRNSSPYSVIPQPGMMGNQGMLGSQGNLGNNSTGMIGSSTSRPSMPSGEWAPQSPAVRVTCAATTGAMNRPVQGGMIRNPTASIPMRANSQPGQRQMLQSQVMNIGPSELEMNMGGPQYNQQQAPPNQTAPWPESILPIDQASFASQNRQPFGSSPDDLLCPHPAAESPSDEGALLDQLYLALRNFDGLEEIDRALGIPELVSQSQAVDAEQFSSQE
T4 sequence (P34021 221-878 limits assumed, stated change not applied): as the sequence (P34021 221-878 limits assumed, stated change not applied) above
T4 sequence (P20153 whole entry partner): as the sequence (P20153 whole entry partner) above
T4 sequence (Q61026 322-1121 partner limits assumed): as the sequence (Q61026 322-1121 partner limits assumed) above
T6 sequence (P34021 221-878, stated change not applied): as the sequence (P34021 221-878 limits assumed, stated change not applied) above
T6 sequence (O76202 with tags, fused parts or gaps partner): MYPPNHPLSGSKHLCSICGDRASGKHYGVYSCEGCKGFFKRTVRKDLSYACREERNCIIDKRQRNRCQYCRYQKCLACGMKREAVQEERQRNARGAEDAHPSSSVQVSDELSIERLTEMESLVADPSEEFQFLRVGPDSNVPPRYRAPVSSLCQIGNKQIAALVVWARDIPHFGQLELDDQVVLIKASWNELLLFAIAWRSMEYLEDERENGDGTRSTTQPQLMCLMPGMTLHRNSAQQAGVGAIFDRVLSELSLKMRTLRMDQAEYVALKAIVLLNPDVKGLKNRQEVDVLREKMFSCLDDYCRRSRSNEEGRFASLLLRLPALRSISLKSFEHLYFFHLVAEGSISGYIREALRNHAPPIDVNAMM
T1 sequence (P34021 whole entry): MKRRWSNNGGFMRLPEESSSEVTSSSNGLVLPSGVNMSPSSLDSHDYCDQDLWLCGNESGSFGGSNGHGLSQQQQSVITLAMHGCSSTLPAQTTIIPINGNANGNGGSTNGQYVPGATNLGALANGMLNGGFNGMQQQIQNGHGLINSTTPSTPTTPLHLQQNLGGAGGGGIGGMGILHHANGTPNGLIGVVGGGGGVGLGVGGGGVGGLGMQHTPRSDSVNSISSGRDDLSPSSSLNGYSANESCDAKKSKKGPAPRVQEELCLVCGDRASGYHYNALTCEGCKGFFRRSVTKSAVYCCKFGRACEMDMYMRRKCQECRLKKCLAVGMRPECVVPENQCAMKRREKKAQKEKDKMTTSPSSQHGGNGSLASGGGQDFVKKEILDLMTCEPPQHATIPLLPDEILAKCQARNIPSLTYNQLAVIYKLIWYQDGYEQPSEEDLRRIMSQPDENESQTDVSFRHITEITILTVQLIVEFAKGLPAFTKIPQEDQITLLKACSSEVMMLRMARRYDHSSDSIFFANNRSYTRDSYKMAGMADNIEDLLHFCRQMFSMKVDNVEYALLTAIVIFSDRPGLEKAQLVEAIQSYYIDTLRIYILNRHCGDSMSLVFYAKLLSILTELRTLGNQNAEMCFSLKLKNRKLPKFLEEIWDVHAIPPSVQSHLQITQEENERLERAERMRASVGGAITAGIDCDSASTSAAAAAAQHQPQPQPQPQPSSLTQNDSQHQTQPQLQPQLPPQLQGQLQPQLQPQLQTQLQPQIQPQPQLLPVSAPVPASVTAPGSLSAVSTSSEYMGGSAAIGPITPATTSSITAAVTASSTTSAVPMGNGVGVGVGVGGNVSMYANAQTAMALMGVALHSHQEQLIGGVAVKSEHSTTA
T1 sequence (P20153 whole entry partner): as the sequence (P20153 whole entry partner) above
T2 sequence (P34021 whole entry): as the sequence (P34021 whole entry) above

For `CCc1ccc(C(=O)NN(C(=O)c2cc(C)cc(C)c2)C(C)(C)C)cc1` [RH 5992, tebufenozide], the β-galactosidase activity in experiment [1] is 1.953; in experiment [2], 1.200; in experiment [3] (RH 5992 10 μM, yeast, Dm ΔN EcR + DmUSP, DMSO control 0.152), 0.182; in experiment [4], 2.537; in experiment [5] it was 1.409; in experiment [6] it was 0.590. Moreover, the β-galactosidase activity in experiment [7] is given as 2.032. For the same molecule, the “transactivation of the reporter gene (in words)” value in experiment [3] (10 μM, DmEcR with N-terminal deletion, DmUSP present or absent, no GRIP1) is “incapable of transactivating the reporter gene”.
